From ChEMBL document CHEMBL3886759, “Indole-1-carboxamides as kinase inhibitors” (2016) come the findings set out here.

As usually defined, the IC50 is the midpoint of a concentration-inhibition curve. Low readings indicate inhibition by little substance, high ones a need for much substance.

Assay [1] deals with Vascular endothelial growth factor receptor 2 (Homo sapiens, UniProt P35968). Kind of assay: (§1) Kinase Assay: Biochemical KDR kinase assays were performed in 96 well microtiter plates that were coated overnight with 75 μg/well of poly-Glu-Tyr (4:1) in 10 mM Phosphate Buffered Saline (PBS), pH 7.4. The coated plates were washed with 2 mls per well PBS+0.05% Tween-20 (PBS-T), blocked by incubation with PBS containing 1% BSA, then washed with 2 mls per well PBS-T prior to starting the reaction. Reactions were carried out in 100 μL reaction volumes containing 2.7 μM ATP in kinase buffer (50 mM Hepes buffer pH 7.4, 20 mM MgCl2, 0.1 mM MnCl2 and 0.2 mM Na3VO4). Test compounds were reconstituted in 100% DMSO and added to the reaction to give a final DMSO concentration of 5%. Reactions were initiated by the addition 20 ul per well of kinase buffer containing 200-300 ng purified cytoplasmic domain KDR protein (BPS Bioscience, San Diego, Calif.).

Assay [2] has as its target Platelet-derived growth factor receptor beta (Homo sapiens, UniProt P09619). The description is as §1, with “Biochemical PDGFRβ” for “Biochemical KDR”, “75 μg” for “75 μg/well”, “containing 36” for “containing 2.7”, “domain PDGFR-b” for “domain KDR”, “protein (Millipore). Following a 60 minute incubation at 30° C., the reactions were washed 2 mls per well PBS-T.” for “protein (BPS Bioscience, San Diego, Calif.).”.

Chain of Platelet-derived growth factor receptor beta (P09619 whole entry): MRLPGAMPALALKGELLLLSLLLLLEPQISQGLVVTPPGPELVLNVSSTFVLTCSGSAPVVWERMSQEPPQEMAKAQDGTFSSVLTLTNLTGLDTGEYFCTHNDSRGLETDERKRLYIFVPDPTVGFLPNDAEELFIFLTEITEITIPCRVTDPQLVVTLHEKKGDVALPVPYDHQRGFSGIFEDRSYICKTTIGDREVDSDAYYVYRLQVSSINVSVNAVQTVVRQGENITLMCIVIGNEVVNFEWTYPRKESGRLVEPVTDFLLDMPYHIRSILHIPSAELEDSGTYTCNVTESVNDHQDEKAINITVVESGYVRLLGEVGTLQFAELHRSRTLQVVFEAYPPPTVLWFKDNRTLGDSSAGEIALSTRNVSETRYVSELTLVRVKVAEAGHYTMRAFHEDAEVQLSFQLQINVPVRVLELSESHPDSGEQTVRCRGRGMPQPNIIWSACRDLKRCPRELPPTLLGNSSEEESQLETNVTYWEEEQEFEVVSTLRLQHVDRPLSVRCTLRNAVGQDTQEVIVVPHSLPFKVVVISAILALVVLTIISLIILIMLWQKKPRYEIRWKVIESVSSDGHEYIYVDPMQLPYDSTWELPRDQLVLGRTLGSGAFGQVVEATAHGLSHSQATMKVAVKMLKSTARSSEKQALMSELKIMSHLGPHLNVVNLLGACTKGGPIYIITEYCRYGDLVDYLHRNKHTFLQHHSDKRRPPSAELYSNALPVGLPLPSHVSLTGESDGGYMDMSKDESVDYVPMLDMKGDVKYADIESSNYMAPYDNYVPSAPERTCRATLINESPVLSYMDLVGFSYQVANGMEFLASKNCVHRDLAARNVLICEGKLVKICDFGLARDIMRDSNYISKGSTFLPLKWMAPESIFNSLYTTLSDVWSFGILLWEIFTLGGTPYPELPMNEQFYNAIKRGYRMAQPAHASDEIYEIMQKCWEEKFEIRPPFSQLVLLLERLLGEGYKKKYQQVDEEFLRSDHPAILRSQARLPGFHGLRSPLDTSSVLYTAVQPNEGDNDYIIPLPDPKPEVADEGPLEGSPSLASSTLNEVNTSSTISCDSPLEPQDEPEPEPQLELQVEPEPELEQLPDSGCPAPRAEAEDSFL
Chain of Vascular endothelial growth factor receptor 2 (P35968 whole entry): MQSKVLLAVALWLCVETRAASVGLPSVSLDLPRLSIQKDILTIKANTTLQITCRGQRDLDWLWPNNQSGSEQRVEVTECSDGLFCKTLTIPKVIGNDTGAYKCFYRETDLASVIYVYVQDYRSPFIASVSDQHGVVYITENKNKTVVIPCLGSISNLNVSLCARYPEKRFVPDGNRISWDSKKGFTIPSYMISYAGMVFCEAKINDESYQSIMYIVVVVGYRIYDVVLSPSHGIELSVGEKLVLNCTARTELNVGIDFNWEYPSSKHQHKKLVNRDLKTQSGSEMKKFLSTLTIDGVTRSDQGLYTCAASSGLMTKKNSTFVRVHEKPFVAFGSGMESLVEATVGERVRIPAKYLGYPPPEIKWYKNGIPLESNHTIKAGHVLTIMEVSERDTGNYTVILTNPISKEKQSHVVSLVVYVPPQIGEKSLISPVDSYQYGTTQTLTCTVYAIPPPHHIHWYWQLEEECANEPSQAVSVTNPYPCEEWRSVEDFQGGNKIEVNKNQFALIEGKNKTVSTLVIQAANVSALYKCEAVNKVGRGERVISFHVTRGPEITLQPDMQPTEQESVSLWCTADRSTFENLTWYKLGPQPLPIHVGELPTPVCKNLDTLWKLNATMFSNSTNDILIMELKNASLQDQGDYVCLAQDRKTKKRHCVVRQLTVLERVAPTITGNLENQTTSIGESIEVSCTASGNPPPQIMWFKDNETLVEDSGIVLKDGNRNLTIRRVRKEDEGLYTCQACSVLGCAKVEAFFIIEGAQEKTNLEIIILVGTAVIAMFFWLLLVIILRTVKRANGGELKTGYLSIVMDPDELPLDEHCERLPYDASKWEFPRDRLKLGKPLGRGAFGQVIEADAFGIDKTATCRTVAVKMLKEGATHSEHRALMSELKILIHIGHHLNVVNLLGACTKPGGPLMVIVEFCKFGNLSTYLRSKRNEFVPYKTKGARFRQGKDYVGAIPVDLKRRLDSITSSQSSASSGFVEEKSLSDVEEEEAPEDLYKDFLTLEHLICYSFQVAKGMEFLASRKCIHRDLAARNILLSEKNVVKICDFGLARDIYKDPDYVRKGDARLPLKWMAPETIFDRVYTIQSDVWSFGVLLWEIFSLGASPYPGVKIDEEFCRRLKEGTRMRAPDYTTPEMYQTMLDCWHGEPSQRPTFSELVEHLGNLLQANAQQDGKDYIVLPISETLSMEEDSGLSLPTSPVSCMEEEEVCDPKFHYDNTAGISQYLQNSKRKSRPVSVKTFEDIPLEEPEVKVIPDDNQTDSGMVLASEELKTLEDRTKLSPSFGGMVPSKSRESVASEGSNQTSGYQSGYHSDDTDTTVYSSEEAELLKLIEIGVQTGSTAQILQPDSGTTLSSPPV

With `CCc1cccc(NC(=O)Nc2ccc(-c3cc4ccccc4n3C(N)=O)cc2)c1`, the figures for the IC50 in assay [1] and in assay [2] were 3 nM and 10 nM, respectively.
